# Measured values: ChEMBL document CHEMBL1201862, “PubChem BioAssay data set” (2004)
#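 Tested at 5 concentrations; 48 h exposure; 96-well plates; endpoints linearly interpolated, else capped at highest concentration. The concentration for 50% growth inhibition is given as GI50.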 Activity calls are given as the source filed them. No stated cut-off is given here; in the data, active = GI50 up to about 1.1 µM and inactive = higher.
# Key:
# Assay in all cases: NCI anticancer screen, dose series, 48 h
# NCI-H522 = tested on: NCI-H522
# HT-29 = tested on: HT-29
# A498 = tested on: A498
# HCT-116 = tested on: HCT-116
# NCI-H23 = tested on: NCI-H23
# MDA-N = tested on: MDA-N
# KM12 = tested on: KM12
# T47D = tested on: T47D
# K562 = tested on: K562
# OVCAR-3 = tested on: OVCAR-3
# RPMI-8226 = tested on: RPMI-8226
# DU-145 = tested on: DU-145
# OVCAR-4 = tested on: OVCAR-4
# UO-31 = tested on: UO-31
# SK-MEL-5 = tested on: SK-MEL-5
# SK-OV-3 = tested on: SK-OV-3
# OVCAR-5 = tested on: OVCAR-5
# MDA-MB-435 = tested on: MDA-MB-435
# LOX IMVI = tested on: LOX IMVI
# BT-549 = tested on: BT-549
# OVCAR-8 = tested on: OVCAR-8
# MOLT-4 = tested on: MOLT-4
# HL-60 = tested on: HL-60
# COLO 205 = tested on: COLO 205
# HOP-62 = tested on: HOP-62
# 786-0 = tested on: 786-0
# Malme-3M = tested on: Malme-3M
# M14 = tested on: M14
# NCI-H460 = tested on: NCI-H460
# RXF 393 = tested on: RXF 393
# MDA-MB-231 = tested on: MDA-MB-231
# TK-10 = tested on: TK-10
# SK-MEL-28 = tested on: SK-MEL-28
# NCI-H226 = tested on: NCI-H226
# HOP-92 = tested on: HOP-92
# SF-268 = tested on: SF-268
# SK-MEL-2 = tested on: SK-MEL-2
# CAKI-1 = tested on: CAKI-1
# IGROV-1 = tested on: IGROV-1
# PC-3 = tested on: PC-3
# MCF7 = tested on: MCF7
# A549 = tested on: A549
# HCT-15 = tested on: HCT-15
# NCI/ADR-RES = tested on: NCI/ADR-RES
# HCC 2998 = tested on: HCC 2998
# SR = tested on: SR
# Hs-578T = tested on: Hs-578T
# CCRF-CEM = tested on: CCRF-CEM
# SNB-75 = tested on: SNB-75
# UACC-62 = tested on: UACC-62
# SN12C = tested on: SN12C
# SW-620 = tested on: SW-620
# EKVX = tested on: EKVX
# SF-295 = tested on: SF-295
# SNB-19 = tested on: SNB-19
# U-251 = tested on: U-251
# ACHN = tested on: ACHN
# UACC-257 = tested on: UACC-257
smiles,measurement,setting,value
O=C1C(c2c(O)[nH]c3ccc(S(=O)(=O)O)cc23)=Nc2ccccc21,GI50,NCI-H522,> 100 µM (inactive)
same,GI50,HT-29,> 100 µM (inactive)
same,GI50,A498,> 100 µM (inactive)
same,GI50,HCT-116,> 100 µM (inactive)
same,GI50,NCI-H23,> 100 µM (inactive)
same,GI50,MDA-N,> 100 µM (inactive)
same,GI50,KM12,> 100 µM (inactive)
same,GI50,T47D,72.1 µM (inactive)
same,GI50,K562,> 100 µM (inactive)
same,GI50,OVCAR-3,> 100 µM (inactive)
same,GI50,RPMI-8226,> 100 µM (inactive)
same,GI50,DU-145,> 100 µM (inactive)
same,GI50,OVCAR-4,94.4 µM (inactive)
same,GI50,UO-31,> 100 µM (inactive)
same,GI50,SK-MEL-5,> 100 µM (inactive)
same,GI50,SK-OV-3,> 100 µM (inactive)
same,GI50,OVCAR-5,> 100 µM (inactive)
same,GI50,MDA-MB-435,> 100 µM (inactive)
same,GI50,LOX IMVI,> 100 µM (inactive)
same,GI50,BT-549,> 100 µM (inactive)
same,GI50,OVCAR-8,> 100 µM (inactive)
same,GI50,MOLT-4,> 100 µM (inactive)
same,GI50,HL-60,> 100 µM (inactive)
same,GI50,COLO 205,> 100 µM (inactive)
same,GI50,HOP-62,> 100 µM (inactive)
same,GI50,786-0,> 100 µM (inactive)
same,GI50,Malme-3M,> 100 µM (inactive)
same,GI50,M14,> 100 µM (inactive)
same,GI50,NCI-H460,> 100 µM (inactive)
same,GI50,RXF 393,> 100 µM (inactive)
same,GI50,MDA-MB-231,> 100 µM (inactive)
same,GI50,TK-10,> 100 µM (inactive)
same,GI50,SK-MEL-28,> 100 µM (inactive)
same,GI50,NCI-H226,> 100 µM (inactive)
same,GI50,HOP-92,> 100 µM (inactive)
same,GI50,SF-268,> 100 µM (inactive)
same,GI50,SK-MEL-2,> 100 µM (inactive)
same,GI50,CAKI-1,> 100 µM (inactive)
same,GI50,IGROV-1,> 100 µM (inactive)
same,GI50,PC-3,> 100 µM (inactive)
same,GI50,MCF7,53.5 µM (inactive)
same,GI50,A549,> 100 µM (inactive)
same,GI50,HCT-15,> 100 µM
same,GI50,NCI/ADR-RES,> 100 µM (inactive)
same,GI50,HCC 2998,> 100 µM (inactive)
same,GI50,SR,> 100 µM (inactive)
same,GI50,Hs-578T,> 100 µM (inactive)
same,GI50,CCRF-CEM,> 100 µM (inactive)
same,GI50,SNB-75,> 100 µM (inactive)
same,GI50,UACC-62,> 100 µM (inactive)
same,GI50,SN12C,> 100 µM (inactive)
same,GI50,SW-620,> 100 µM (inactive)
same,GI50,EKVX,> 100 µM (inactive)
same,GI50,SF-295,> 100 µM (inactive)
same,GI50,SNB-19,> 100 µM (inactive)
same,GI50,U-251,> 100 µM (inactive)
same,GI50,ACHN,> 100 µM (inactive)
same,GI50,UACC-257,> 100 µM (inactive)
CNc1c2cccc(C)c2nc2c(C(=O)NCCN(C)C)cccc12,GI50,NCI-H522,< 0.01 µM (active)
same,GI50,HT-29,< 0.0197 µM (active)
same,GI50,A498,0.213 µM (active)
same,GI50,HCT-116,0.0377 µM (active)
same,GI50,NCI-H23,0.107 µM (active)
same,GI50,MDA-N,0.0841 µM (active)
same,GI50,KM12,0.127 µM (active)
same,GI50,T47D,0.162 µM (active)
same,GI50,K562,0.0249 µM (active)
same,GI50,OVCAR-3,0.214 µM (active)
same,GI50,RPMI-8226,0.0604 µM (active)
same,GI50,DU-145,0.0946 µM (active)
same,GI50,OVCAR-4,< 0.01 µM (active)
same,GI50,UO-31,0.2 µM (active)
same,GI50,SK-MEL-5,0.18 µM (active)
same,GI50,SK-OV-3,0.252 µM (active)
same,GI50,OVCAR-5,0.162 µM (active)
same,GI50,MDA-MB-435,0.152 µM (active)
same,GI50,LOX IMVI,0.112 µM (active)
same,GI50,BT-549,1.04 µM (active)
same,GI50,OVCAR-8,0.07 µM (active)
same,GI50,MOLT-4,< 0.0208 µM (active)
same,GI50,HL-60,0.0847 µM (active)
same,GI50,COLO 205,0.0423 µM (active)
same,GI50,HOP-62,0.164 µM (active)
same,GI50,786-0,0.104 µM (active)
same,GI50,Malme-3M,0.169 µM (active)
same,GI50,M14,0.207 µM (active)
same,GI50,NCI-H460,0.0435 µM (active)
same,GI50,RXF 393,0.0716 µM (active)
same,GI50,MDA-MB-231,< 0.0498 µM (active)
same,GI50,TK-10,0.128 µM (active)
same,GI50,SK-MEL-28,0.45 µM (active)
same,GI50,NCI-H226,0.116 µM (active)
same,GI50,HOP-92,0.122 µM (active)
same,GI50,SF-268,0.0445 µM (active)
same,GI50,SK-MEL-2,0.309 µM (active)
same,GI50,CAKI-1,< 0.0344 µM (active)
same,GI50,IGROV-1,0.0483 µM (active)
same,GI50,PC-3,0.158 µM (active)
same,GI50,MCF7,< 0.045 µM (active)
same,GI50,A549,0.034 µM (active)
same,GI50,HCT-15,0.115 µM
same,GI50,NCI/ADR-RES,0.265 µM (active)
same,GI50,HCC 2998,0.0322 µM (active)
same,GI50,SR,< 0.0288 µM (active)
same,GI50,Hs-578T,0.0957 µM (active)
same,GI50,CCRF-CEM,0.0374 µM (active)
same,GI50,SNB-75,0.051 µM (active)
same,GI50,UACC-62,0.167 µM (active)
same,GI50,SN12C,0.0282 µM (active)
same,GI50,SW-620,< 0.0288 µM (active)
same,GI50,EKVX,0.151 µM (active)
same,GI50,SF-295,0.0586 µM (active)
same,GI50,SNB-19,0.0805 µM (active)
same,GI50,U-251,0.149 µM (active)
same,GI50,ACHN,< 0.024 µM (active)
same,GI50,UACC-257,0.211 µM (active)
